Data taken from article PMC10119930, “Dual Molecules Targeting 5-HT6 and GABA-A Receptors as a New Approach to Combat Depression Associated with Neuroinflammation” (ACS Chemical Neuroscience, 2023).

Columns and labels:
[1] = molecular target: 5-HT6 receptor (Homo sapiens, UniProt P50406); experiment: Radioligand binding assay for 5-HT6 receptor ([3H]-LSD displacement); design: expressed in transfected cells; host or cells: HEK-293 (cryopreserved membranes); details: competitive replacement of [3H]-LSD; ±S.E.M.; read-out: 5-HT6R Ki
5-HT6 receptor, sequence (P50406 whole entry): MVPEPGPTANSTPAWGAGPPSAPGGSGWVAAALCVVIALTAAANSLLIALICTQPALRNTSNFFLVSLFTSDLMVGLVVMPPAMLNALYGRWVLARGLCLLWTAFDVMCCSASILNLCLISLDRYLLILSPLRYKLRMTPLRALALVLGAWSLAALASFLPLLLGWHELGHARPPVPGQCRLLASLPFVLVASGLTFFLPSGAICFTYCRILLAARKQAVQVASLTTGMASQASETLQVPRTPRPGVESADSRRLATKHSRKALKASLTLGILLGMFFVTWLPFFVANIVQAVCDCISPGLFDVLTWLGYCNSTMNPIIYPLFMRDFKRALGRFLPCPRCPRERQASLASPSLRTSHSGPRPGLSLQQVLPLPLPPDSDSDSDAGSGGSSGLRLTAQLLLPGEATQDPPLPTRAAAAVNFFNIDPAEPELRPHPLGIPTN
Procedure: To determine the affinity for 5-HT6, the cryopreserved membranes from HEK-293 cells stably transfected with the human recombinant 5-HT6 receptor were used.[40] Preparation of the tested compounds included preparation of stock solutions in DMSO (1 mM) and subsequent serial dilutions (10^–10–10^–5 M) of tested compounds in the appropriate buffer (50 mM Tris buffer, pH 7.4, 10 mM MgCl2, 0.5 mM ethylenediaminetetraacetic acid). The serial dilutions were acquired directly on a 96-well microplate. The reaction mix included 50 μL of appropriate concentration of tested molecule, 50 μL of [^3H]LSD 2.5/2.0 nM, and 150 μL of diluted membranes. The microplate containing the reaction mix was protected with a sealing tape and incubated for 60 min at 37 °C. Quenching of the reaction mixtire included: rapid filtration through UniFilter 96 GF/B filter microplate and rapid washes using 200 μL 50 mM assay buffer and vacuum manifold and 96-well pipettor. The collected microplates were dried overnight at 37 °C. The UniFilter bottoms were sealed, and then 30 μL of Betaplate Scint liquid scintillator (PerkinElmer) was added to each well. […] The obtained data were fit to a one-site curve-fitting equation using Prism 5 software (GraphPad Software), and the Ki values were determined using the Cheng–Prusoff equation. Radioligand binding was performed in duplicates.

[2] = test system: BV-2 microglia cells; experiment: Evaluation of microglia morphology by fluorescence microscopy (MitoTracker) after LPS; type: cell-based, mouse; details: 10 μM pretreatment 1 h, LPS 18 h

With `Cc1c(OCc2ccccc2)cccc1N1CCN(CCOC(=O)CCCN)CC1.Cl.Cl` [Compound 16, 1-(2-((4-Ammoniobutanoyl)oxy)ethyl)-4-(3-(benzyloxy)-2-methylphenyl)piperazin-1-ium Dichloride] the Ki [1] was 16 ± 0.4 nM and the “mitochondrial membrane potential / morphology of microglia exposed to LPS” value [2] was “protected the microglia from LPS insult”.
